From PubChem BioAssay AID1918943 (Molecular Pharmacology Branch, DTP, NCI, 2023)
Several values for one entry are separate records, joined by “and”; a condition that tells them apart may be missing. Equal entries are not always repeated.

System: 855422-203-R-J1-PDC complex spheroid viability
Assay: Anticancer human tumor 855422-203-R-J1-PDC patient-derived bladder carcinoma cell line growth inhibition
Conditions: for viability, T/C: stronger effect = lower value
Excerpt: Multicellular complex tumor spheroid response to LSD1 Inhibitor Iadademstat in combination with a variety of drugs and investigational agents in selected tumor cell lines
The current study was undertaken to assess response to LSD1 inhibitors in combination with standard-of-care drugs and investigational agents in solid tumor complex spheroid models as well as in the K-562 leukemia. Complex spheroids include a stromal component modeled by human endothelial cells (HUVEC) and fibroblasts modeled by human mesenchymal stem cells (MSCs). The concentration ranges selected for each drug and investigational agent were based upon clinically achievable concentrations if the clinical Cmax of the agent was known.
Compounds. The drugs and investigational agents used in this study are listed on Table 1. All of the agents used, including staurosporine (NSC755774) and gemcitabine (NSC613327), were obtained from the Developmental Therapeutics Program, NCI. FDA-approved anticancer drugs are available from the NCI at http://dtp.nci.nih.gov/branches/dscb/oncology_drugset_explanation.html. Drugs and investigational agents were >95% pure by proton nuclear magnetic resonance (NMR) and liquid chromatography/mass spectrometry (LC/MS). Stock solutions were prepared at 400x in DMSO, stored at -70 degrees C, and diluted in fresh medium prior to their use. The final concentration of DMSO in cell culture wells never exceeded 0.25% (v/v). The FDA-approved anticancer drug set is available from the Developmental Therapeutics Program at https://dtp.cancer.gov/organization/dscb/obtaining/available_plates.htm. All drugs and investigational agents were tested over a range starting from a high concentration at or near the clinical Cmax and decreasing in half-log increments. If the clinical Cmax for an agent had not been determined, the highest concentration tested was 10 microM.
Cell Lines. The patient-derived cancer cell (PDC) lines: 292921-168-R-J2-PDC, K24384-001-R-PDC, and 521955-158-R2-J5-PDC pancreatic carcinomas, 556581-035-R-J1 ovarian carcinoma, 324938-238-R-J1-PDC, 855422-203-R-J1-PDC and 883617-216-R-J1-PDC urothelial bladder carcinomas, 743489-274-T-PDC renal cell carcinoma, 138582-R-J1 Merkel cell tumor, K60290-347-R-J1 and K57222-313-R-J1-PDC glioblastomas, 653999-131-R-J2-PDC, LG0703-F948-PDC, and 349418-098-R-PDC non-small cell lung carcinomas, 885512-296-R-J2-PDC, 171881-019-R-J1-PDC breast carcinomas and 186277-243-T-J2-PDC and 233499-124-R-J2-PDC colon carcinomas were obtained from the NCI Patient-Derived Models Repository (PDMR, https://pdmr.cancer.gov). The established cell lines NCI/ADR-RES (RRID:CVCL_14520 and OVCAR-5 (RRID:CVCL_1628) ovarian carcinomas, 786-O (RRID:CVCL_1051) and A498 (RRID:CVCL_A498) renal cell carcinoma, NCI-H211 (ATCC, cat. CRL-5824; RRID:CVCL_1529), NCI-H196 (ATCC, cat. CRL-5823, RRID:CVCL_1509), SW 1271 (ATCC, cat. CRL-2177, RRID:CVCL_1716) and NCI-H1876 (ATCC, cat. CRL-5902, RRID:CVCL_1503) small cell lung carcinomas, MDA-MB-231 (RRID:CVCL_0062) and MDA-MB-468 (RRID:CVCL_0419)breast carcinomas (10-12). Pooled donor human umbilical vein endothelial cells (HUVEC, Lonza, cat. CC-2519) and human mesenchymal stem cells (hMSC, Lonza, cat. PT-2501) were purchased from Lonza (Walkersville, MD).
Cell Culture. All cells were maintained in an incubator at 37 degrees C and 5% CO2 with 95% humidity. The PDC lines were cultured according to standard operating procedures established by the NCI PDMR (https://pdmr.cancer.gov). Briefly all PDCs were thawed and cultured in Matrigel-coated flasks prepared with a working solution of 1X Ham's F-12 nutrient mix, without supplementation (Invitrogen, Waltham, MA, cat. 11765054), 100 U/mL penicillin-streptomycin (Invitrogen, cat. 15140122), and 2.5% Matrigel (Corning Inc., Corning, NY, cat. 354248) for the first three passages. […]

[1] = curve of first compound, second compound 0.1 µM
[2] = curve of first compound, second compound 0.316 µM
[3] = curve of first compound, second compound 1 µM
[4] = curve of first compound, second compound 3.16 µM
[5] = curve of first compound, second compound 10 µM
[6] = second compound 0.1 µM, first compound 0.00949 µM
[7] = second compound 0.1 µM, first compound 0.03 µM
[8] = second compound 0.1 µM, first compound 0.0949 µM
[9] = second compound 0.1 µM, first compound 0.3 µM
[10] = second compound 0.316 µM, first compound 0.00949 µM
[11] = second compound 0.316 µM, first compound 0.03 µM
[12] = second compound 0.316 µM, first compound 0.0949 µM
[13] = second compound 0.316 µM, first compound 0.3 µM
[14] = second compound 1 µM, first compound 0.00949 µM
[15] = second compound 1 µM, first compound 0.03 µM
[16] = second compound 1 µM, first compound 0.0949 µM
[17] = second compound 1 µM, first compound 0.3 µM
[18] = second compound 3.16 µM, first compound 0.00949 µM
[19] = second compound 3.16 µM, first compound 0.03 µM
[20] = second compound 3.16 µM, first compound 0.0949 µM
[21] = second compound 3.16 µM, first compound 0.3 µM
[22] = second compound 10 µM, first compound 0.00949 µM
[23] = second compound 10 µM, first compound 0.03 µM
[24] = second compound 10 µM, first compound 0.0949 µM
[25] = second compound 10 µM, first compound 0.3 µM
[26] = second compound 0.1 µM, first compound 0.000949 µM
[27] = second compound 0.1 µM, first compound 0.003 µM
[28] = second compound 0.316 µM, first compound 0.000949 µM
[29] = second compound 0.316 µM, first compound 0.003 µM
[30] = second compound 1 µM, first compound 0.000949 µM
[31] = second compound 1 µM, first compound 0.003 µM
[32] = second compound 3.16 µM, first compound 0.000949 µM
[33] = second compound 3.16 µM, first compound 0.003 µM
[34] = second compound 10 µM, first compound 0.000949 µM
[35] = second compound 10 µM, first compound 0.003 µM
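Also: drug exposure lasted 7 days starting on day 3 after seeding.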
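For viability, T/C in this document: luminescence viability as percent of DMSO vehicle wells = 100%.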

COc1cc(C2c3cc4c(cc3C(OC3OC5COC(C)OC5C(O)C3O)C3COC(=O)C23)OCO4)cc(OC)c1O (centres undefined) + NC1CCC(NC2CC2c2ccccc2)CC1
IC50 [1]: 0.153 µM
IC50 [2]: 0.142 µM
IC50 [3]: 0.137 µM
IC50 [4]: 0.128 µM
IC50 [5]: 0.13 µM
viability, T/C [6]: 89.8%
viability, T/C [7]: 87.1%
viability, T/C [8]: 57.6%
viability, T/C [9]: 35.6%
viability, T/C (second compound 0.1 µM, first compound 0.949 µM): 18.5%
viability, T/C (second compound 0.1 µM, first compound 3 µM): 9.63%
viability, T/C [10]: 92%
viability, T/C [11]: 86.4%
viability, T/C [12]: 55.4%
viability, T/C [13]: 34.6%
viability, T/C (second compound 0.316 µM, first compound 0.949 µM): 19.5%
viability, T/C (second compound 0.316 µM, first compound 3 µM): 10.1%
viability, T/C [14]: 85.2%
viability, T/C [15]: 81.9%
viability, T/C [16]: 56.9%
viability, T/C [17]: 31.7%
viability, T/C (second compound 1 µM, first compound 0.949 µM): 16.4%
viability, T/C (second compound 1 µM, first compound 3 µM): 8.66%
viability, T/C [18]: 85%
viability, T/C [19]: 84.9%
viability, T/C [20]: 53.6%
viability, T/C [21]: 30.5%
viability, T/C (second compound 3.16 µM, first compound 0.949 µM): 17%
viability, T/C (second compound 3.16 µM, first compound 3 µM): 8.59%
viability, T/C [22]: 78.4%
viability, T/C [23]: 79.7%
viability, T/C [24]: 57.7%
viability, T/C [25]: 26.8%
viability, T/C (second compound 10 µM, first compound 0.949 µM): 15.8%
viability, T/C (second compound 10 µM, first compound 3 µM): 8.09%

Nc1ncn(C2CC(O)C(CO)S2)c(=O)n1 (centres undefined)
viability, T/C (compound 0.000949 µM): 106% and 93.8%
viability, T/C (compound 0.003 µM): 91.9% and 98.4%
viability, T/C (compound 0.00949 µM): 88.5% and 95.2%
viability, T/C (compound 0.03 µM): 84.7% and 98%
viability, T/C (compound 0.0949 µM): 82.8% and 102%
viability, T/C (compound 0.3 µM): 79.9% and 83.6%
IC50 (curve of compound): > 0.3 µM

Nc1ccn(C2OC(CO)C(O)C2(F)F)c(=O)n1 (centres undefined) + NC1CCC(NC2CC2c2ccccc2)CC1
IC50 [1]: 0.00438 µM
IC50 [2]: 0.00579 µM
IC50 [3]: 0.00614 µM
IC50 [4]: 0.00683 µM
IC50 [5]: 0.00848 µM
viability, T/C [26]: 90.5%
viability, T/C [27]: 53.3%
viability, T/C [6]: 39.5%
viability, T/C [7]: 34.7%
viability, T/C [8]: 28.7%
viability, T/C [9]: 24.4%
viability, T/C [28]: 86.6%
viability, T/C [29]: 58.9%
viability, T/C [10]: 41.3%
viability, T/C [11]: 34.8%
viability, T/C [12]: 30%
viability, T/C [13]: 20.6%
viability, T/C [30]: 88.5%
viability, T/C [31]: 57.2%
viability, T/C [14]: 45.4%
viability, T/C [15]: 37.9%
viability, T/C [16]: 32.5%
viability, T/C [17]: 28.6%
viability, T/C [32]: 79.2%
viability, T/C [33]: 63.1%
viability, T/C [18]: 43.5%
viability, T/C [19]: 35.1%
viability, T/C [20]: 26.8%
viability, T/C [21]: 24.7%
viability, T/C [34]: 82.1%
viability, T/C [35]: 55.9%
viability, T/C [22]: 52%
viability, T/C [23]: 39.9%
viability, T/C [24]: 27.6%
viability, T/C [25]: 22.3%

CCc1c2c(nc3ccc(O)cc13)-c1cc3c(c(=O)n1C2)COC(=O)[C@]3(O)CC + NC1CCC(NC2CC2c2ccccc2)CC1
IC50 [1]: < 0.000949 µM
IC50 [2]: < 0.000949 µM
IC50 [3]: < 0.000949 µM
IC50 [4]: < 0.000949 µM
IC50 [5]: < 0.000949 µM
viability, T/C [26]: 21.1%
viability, T/C [27]: 16%
viability, T/C [6]: 11.9%
viability, T/C [7]: 9.64%
viability, T/C [8]: 6.14%
viability, T/C [9]: 2.74%
viability, T/C [28]: 22.6%
viability, T/C [29]: 19.5%
viability, T/C [10]: 12.3%
viability, T/C [11]: 9.27%
viability, T/C [12]: 5.32%
viability, T/C [13]: 5.13%
viability, T/C [30]: 23.6%
viability, T/C [31]: 17.3%
viability, T/C [14]: 13.2%
viability, T/C [15]: 8.94%
viability, T/C [16]: 7.12%
viability, T/C [17]: 2.09%
viability, T/C [32]: 22.1%
viability, T/C [33]: 15.5%
viability, T/C [18]: 11.4%
viability, T/C [19]: 9.39%
viability, T/C [20]: 4.78%
viability, T/C [21]: 2.98%
viability, T/C [34]: 20.7%
viability, T/C [35]: 12.2%
viability, T/C [22]: 8.28%
viability, T/C [23]: 8.25%
viability, T/C [24]: 4.8%
viability, T/C [25]: 1.43%

COc1cc(Nc2ncc3c(n2)-c2ccc(Cl)cc2C(c2c(F)cccc2OC)=NC3)ccc1C(=O)O
viability, T/C (compound 0.00316 µM): 95.3% and 91.3%
viability, T/C (compound 0.01 µM): 96.3% and 104%
viability, T/C (compound 0.0316 µM): 80.6% and 79.7%
viability, T/C (compound 0.1 µM): 79.5% and 71.7%
viability, T/C (compound 0.316 µM): 62.2% and 59.5%
viability, T/C (compound 1 µM): 63.8% and 64.5%
IC50 (curve of compound): > 1 µM

Nc1ncn(C2CC(O)C(CO)S2)c(=O)n1 (centres undefined) + NC1CCC(NC2CC2c2ccccc2)CC1
IC50 [1]: > 0.3 µM
IC50 [2]: > 0.3 µM
IC50 [3]: > 0.3 µM
IC50 [4]: > 0.3 µM
IC50 [5]: > 0.3 µM
viability, T/C [26]: 99.6%
viability, T/C [27]: 93.5%
viability, T/C [6]: 85.8%
viability, T/C [7]: 90.1%
viability, T/C [8]: 93.8%
viability, T/C [9]: 73%
viability, T/C [28]: 95.5%
viability, T/C [29]: 89.3%
viability, T/C [10]: 89%
viability, T/C [11]: 89.5%
viability, T/C [12]: 97.8%
viability, T/C [13]: 80.1%
viability, T/C [30]: 87.1%
viability, T/C [31]: 87.9%
viability, T/C [14]: 86.4%
viability, T/C [15]: 89.2%
viability, T/C [16]: 86.6%
viability, T/C [17]: 78.1%
viability, T/C [32]: 92.4%
viability, T/C [33]: 91.7%
viability, T/C [18]: 84%
viability, T/C [19]: 92.8%
viability, T/C [20]: 87%
viability, T/C [21]: 73.4%
viability, T/C [34]: 89.5%
viability, T/C [35]: 81.7%
viability, T/C [22]: 82.9%
viability, T/C [23]: 82.7%
viability, T/C [24]: 82.1%
viability, T/C [25]: 74.5%
